Test results as given in patent US10117912B2 (priority 2013, dated 2018).
Converted amounts (≈) assume the structure as drawn. Read-outs that look alike come from different tables or passages of the source.

How the values were obtained:
[1] = test system: alkaline phosphatase from bovine intestinal mucosa; assay type: biochemical
[2] = Equilibrium solubility of phenytoin in assay buffer; assay type: physicochemical
Procedure: 10 mg of phenytoin was added to a 20 mL scintillation vial containing 2 mL assay buffer, pH 7.4 (122 mM NaCl, 25 mM NaHCO3, 10 mM glucose, 10 mM HEPES, 3 mM KCl, 1.2 mM MgSO4, 1.4 mM CaCl2, and 0.4 mM K2HPO4). The vials were placed in a shaker incubator at different temperatures (28, 32 and 37° C.). After 48 h, drug suspension from vial was centrifuged at 13000 g for 20 min. Using a 0.2 μm syringe filter, the supernatant was filtered into a fresh glass vial and analyzed using HPLC. The experiments were performed in triplicate.

[3] = prodrug S=6.1 with 0.6 IU/mL enzyme, 3 h

## O=C1NC(c2ccccc2)(c2ccccc2)C(=O)N1COP(=O)(O)O [fosphenytoin, Fosphenytoin disodium]
[1]
  kcat: 2880 s⁻¹
[1]; fosphenytoin 586 μM, various enzyme concentrations
  extent of conversion of prodrug to drug: Complete conversion
[1]; pH 7.4
  Vmax (Michaelis-Menten): 51.1 ± 1.8 µM/min
[1]; pH 7.4, read-out: KM (Michaelis-Menten)
  Km: 828 ± 81.6 µM
MDCKII-wt monolayer; 3 h treatment, pH 7.4, 32° C., enzyme alone or prodrug alone at S=0.8 or S=6.1
  membrane integrity (TEER): not compromised
MDCKII-wt monolayer; [3]
  TEER value: > 60 ohms/cm^2
  membrane integrity (TEER), prodrug with enzyme: minor compromise of intercellular tight junctions

## O=C1NC(=O)C(c2ccccc2)(c2ccccc2)N1 [phenytoin]
[2]; 28° C. and 37° C., pH 7.4
  effect of temperature on solubility: unaffected
[2]; aqueous buffer, thermodynamic from solid, pH 7.4 and 32° C., assay buffer, 48 h
  solubility at 48 h: 126 ± 5.6 µM (≈ 31.9 µg/mL)

## alkaline phosphatase
MDCKII-wt monolayer; pH 7.4
  membrane integrity (TEER): not compromised
